Measured values as given in patent US20200339625A1, “NOVEL RADIOMETAL-BINDING COMPOUNDS FOR DIAGNOSIS OR TREATMENT OF PROSTATE SPECIFIC MEMBRANE ANTIGEN-EXPRESSING CANCER” (PROVINCIAL HEALTH SERVICES AUTHORITY, priority 2017, published 2020).

How the values were obtained:
[1] = tested on: mice bearing LNCaP tumor xenografts; assay: PET/CT imaging of 68Ga-labeled compounds; assay type: in vivo
In short: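 Male NOD SCID IL2Rγ KO mice bore subcutaneous LNCaP xenografts (1×10^7 cells, tumours 5-8 mm) and received 6-8 MBq tracer via tail vein under 2% isoflurane. At 50 min p.i., a 10-min CT and a 10-min static PET were acquired. For the 3 h time point, scanning began at 170 min p.i. with a 15-min static PET.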

[2] = tested on: mice bearing PSMA-expressing LNCAP cancer xenografts; assay: Biodistribution of 68Ga-labeled compounds; assay type: in vivo
In short: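 NOD-SCID IL2RγKO male mice carried subcutaneous LNCaP xenografts grown to 5-8 mm over 5-6 weeks. Organs and blood were collected at 1 or 3 h after injection of the radiotracer and gamma-counted. Uptake was normalized to injected dose via a standard curve and expressed as %ID/g.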

- change of tumor uptake from 1 h to 3 h post-injection ([1]; PET/CT images): increases over time
- excretion pathway ([1]; PET/CT images): excreted mainly by the renal pathway
- blood retention (qualitative) ([1]; PET/CT images at 1 h and 3 h post-injection, comparison within the figure): significantly higher blood retention
- Adrenal glands uptake ([2]; 1 h post-injection): 3.57 ± 1.09 % ID/g
- Blood uptake ([2]; 1 h post-injection): 5.73 ± 0.93 % ID/g
- Bone uptake ([2]; 1 h post-injection): 0.34 ± 0.08 % ID/g
- Brain uptake ([2]; 1 h post-injection): 0.08 ± 0.01 % ID/g
- Fat uptake ([2]; 1 h post-injection): 1.36 ± 0.28 % ID/g
- Heart uptake ([2]; 1 h post-injection): 1.46 ± 0.27 % ID/g
- Intestine uptake ([2]; 1 h post-injection): 0.61 ± 0.10 % ID/g
- Kidneys uptake ([2]; 1 h post-injection): 85.8 ± 8.36 % ID/g
- Lacrimal uptake ([2]; 1 h post-injection): 0.11 ± 0.06 % ID/g
- Liver uptake ([2]; 1 h post-injection): 1.01 ± 0.29 % ID/g
- Lungs uptake ([2]; 1 h post-injection): 3.67 ± 0.72 % ID/g
- Muscle uptake ([2]; 1 h post-injection): 0.58 ± 0.08 % ID/g
- Pancreas uptake ([2]; 1 h post-injection): 0.86 ± 0.09 % ID/g
- Salivary uptake ([2]; 1 h post-injection): 2.61 ± 0.59 % ID/g
- Seminal uptake ([2]; 1 h post-injection): 1.42 ± 2.17 % ID/g
- Spleen uptake ([2]; 1 h post-injection): 3.90 ± 1.57 % ID/g
- Stomach uptake ([2]; 1 h post-injection): 0.24 ± 0.05 % ID/g
- Tail uptake ([2]; 1 h post-injection): 1.79 ± 0.36 % ID/g
- Testes uptake ([2]; 1 h post-injection): 1.03 ± 0.12 % ID/g
- Thyroid uptake ([2]; 1 h post-injection): 1.70 ± 0.25 % ID/g
- Tumor uptake ([2]; 1 h post-injection): 18.8 ± 3.35 % ID/g
- Tumor:Blood ratio ([2]; 1 h post-injection): 3.33 ± 0.75
- Tumor:Muscle ratio ([2]; 1 h post-injection): 33.2 ± 7.91
- Tumor:kidney ratio ([2]; 1 h post-injection): 0.22 ± 0.03
- Urine uptake ([2]; 1 h post-injection): 181 ± 97.2 % ID/g
- Adrenal glands uptake ([2]; 3 h post-injection): 1.37 ± 0.48 % ID/g
- Blood uptake ([2]; 3 h post-injection): 2.10 ± 0.48 % ID/g
- Bone uptake ([2]; 3 h post-injection): 0.13 ± 0.04 % ID/g
- Brain uptake ([2]; 3 h post-injection): 0.04 ± 0.01 % ID/g
- Fat uptake ([2]; 3 h post-injection): 0.70 ± 0.13 % ID/g
- Heart uptake ([2]; 3 h post-injection): 0.52 ± 0.09 % ID/g
- Intestine uptake ([2]; 3 h post-injection): 0.39 ± 0.08 % ID/g
- Kidneys uptake ([2]; 3 h post-injection): 63.4 ± 16.6 % ID/g
- Lacrimal uptake ([2]; 3 h post-injection): 0.04 ± 0.07 % ID/g
- Liver uptake ([2]; 3 h post-injection): 0.61 ± 0.08 % ID/g
- Lungs uptake ([2]; 3 h post-injection): 1.50 ± 0.26 % ID/g
- Muscle uptake ([2]; 3 h post-injection): 0.31 ± 0.08 % ID/g
- Pancreas uptake ([2]; 3 h post-injection): 0.35 ± 0.09 % ID/g
- Salivary uptake ([2]; 3 h post-injection): 1.03 ± 0.33 % ID/g
- Seminal uptake ([2]; 3 h post-injection): 0.21 ± 0.08 % ID/g
- Spleen uptake ([2]; 3 h post-injection): 1.05 ± 0.09 % ID/g
- Stomach uptake ([2]; 3 h post-injection): 0.16 ± 0.09 % ID/g
- Tail uptake ([2]; 3 h post-injection): 0.60 ± 0.15 % ID/g
- Testes uptake ([2]; 3 h post-injection): 0.60 ± 0.09 % ID/g
- Thyroid uptake ([2]; 3 h post-injection): 0.64 ± 0.10 % ID/g
- Tumor uptake ([2]; 3 h post-injection): 28.9 ± 4.27 % ID/g
- Tumor:Blood ratio ([2]; 3 h post-injection): 14.2 ± 2.77
- Tumor:Muscle ratio ([2]; 3 h post-injection): 95.8 ± 20.9
- Tumor:kidney ratio ([2]; 3 h post-injection): 0.48 ± 0.11
- Urine uptake ([2]; 3 h post-injection): 141 ± 54.3 % ID/g
SMILES: O=C([O-])CN1CCN(CC(=O)[O-])CCN(CC(=O)NCCCC[C@H](NC(=O)CNC(=O)CCCc2ccc(F)cc2)C(=O)NC[C@H]2CC[C@H](C(=O)N[C@@H](Cc3ccc4ccccc4c3)C(=O)NCCCC[C@H](NC(=O)N[C@@H](CCC(=O)O)C(=O)O)C(=O)O)CC2)CCN(CC(=O)[O-])CC1.[68Ga+3] [^68Ga-HTK03085]
